# In the supplement of paper PMC10307832:
# Assays:
# Experiment in all cases: relative viability (nuclei count vs DMSO), 5 days (fraction); higher = more cells survive
# Palbociclib + Trametinib = compound: CC(=O)c1c(C)c2cnc(Nc3ccc(N4CCNCC4)cn3)nc2n(C2CCCC2)c1=O [Palbociclib] + CC(=O)Nc1cccc(-n2c(=O)n(C3CC3)c(=O)c3c(Nc4ccc(I)cc4F)n(C)c(=O)c(C)c32)c1 [Trametinib] (partner 0.02 µM)
# How it was run: (§1)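 Lung cancer cell lines in 1536-well plates got either a single drug or a fixed anchor-drug dose together with five library-drug doses (not always all listed) in √10 steps, by pin tool, on the day after seeding. Nuclei were counted after 5 days, and relative viability is the treated-to-vehicle ratio of nuclei counts. Values are medians of duplicate plates.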
# Palbociclib + Navitoclax = compound: CC(=O)c1c(C)c2cnc(Nc3ccc(N4CCNCC4)cn3)nc2n(C2CCCC2)c1=O [Palbociclib] + CC1(C)CCC(c2ccc(Cl)cc2)=C(CN2CCN(c3ccc(C(=O)NS(=O)(=O)c4ccc(N[C@H](CCN5CCOCC5)CSc5ccccc5)c(S(=O)(=O)C(F)(F)F)c4)cc3)CC2)C1 [Navitoclax] (partner 0.5 µM)
# How it was run: as §1
# Palbociclib + Luminespib = compound: CC(=O)c1c(C)c2cnc(Nc3ccc(N4CCNCC4)cn3)nc2n(C2CCCC2)c1=O [Palbociclib] + CCNC(=O)c1noc(-c2cc(C(C)C)c(O)cc2O)c1-c1ccc(CN2CCOCC2)cc1 [Luminespib] (partner 0.01 µM)
# How it was run: as §1
# Palbociclib + Phenformin = compound: CC(=O)c1c(C)c2cnc(Nc3ccc(N4CCNCC4)cn3)nc2n(C2CCCC2)c1=O [Palbociclib] + N=C(N)NC(=N)NCCc1ccccc1 [Phenformin] (partner 250 µM)
# How it was run: as §1
Cell Line,relative viability (Palbociclib + Trametinib; first compound 0.01 µM),relative viability (Palbociclib + Trametinib; first compound 0.03162 µM),relative viability (Palbociclib + Trametinib; first compound 0.1 µM),relative viability (Palbociclib + Trametinib; first compound 0.3162 µM),relative viability (Palbociclib + Trametinib; first compound 1 µM),relative viability (Palbociclib + Navitoclax; first compound 0.01 µM),relative viability (Palbociclib + Navitoclax; first compound 0.03162 µM),relative viability (Palbociclib + Navitoclax; first compound 0.1 µM),relative viability (Palbociclib + Navitoclax; first compound 0.3162 µM),relative viability (Palbociclib + Navitoclax; first compound 1 µM),relative viability (Palbociclib + Luminespib; first compound 0.01 µM),relative viability (Palbociclib + Luminespib; first compound 0.03162 µM),relative viability (Palbociclib + Luminespib; first compound 0.1 µM),relative viability (Palbociclib + Luminespib; first compound 0.3162 µM),relative viability (Palbociclib + Luminespib; first compound 1 µM),relative viability (Palbociclib + Phenformin; first compound 0.01 µM),relative viability (Palbociclib + Phenformin; first compound 0.03162 µM),relative viability (Palbociclib + Phenformin; first compound 0.1 µM),relative viability (Palbociclib + Phenformin; first compound 0.3162 µM),relative viability (Palbociclib + Phenformin; first compound 1 µM)
A-427,0.846,0.703,0.628,0.613,0.587,0.978,0.941,0.869,0.874,0.656,0.991,0.809,0.691,0.74,0.501,0.392,0.2,0.282,0.269,0.212
HOP-62,0.431,–,0.36,0.382,0.288,0.959,0.68,0.893,0.86,0.625,0.905,0.844,0.91,0.716,0.675,0.642,–,0.644,0.502,0.47
NCI-H322M,0.499,0.474,0.491,0.482,0.51,1.14,1.31,1.03,0.964,0.808,0.699,0.729,0.647,0.657,0.475,0.741,0.605,0.553,0.502,0.409
NCI-H441,0.483,0.409,0.23,0.228,0.155,–,0.593,0.336,0.484,0.572,0.317,0.371,0.38,0.26,0.229,0.896,0.627,0.623,0.57,0.35
H3255,0.606,0.588,0.539,0.48,0.412,0.632,0.512,0.406,0.567,0.338,0.925,0.91,0.65,0.587,0.464,0.38,0.361,0.319,0.368,0.287
NCI-H1666,0.862,0.704,0.784,0.727,0.728,0.929,0.782,0.792,0.544,0.448,0.969,0.886,0.824,0.754,0.542,0.57,0.462,0.518,0.411,0.427
LU99A,0.557,–,0.523,0.573,0.478,0.789,0.677,0.759,0.601,0.522,0.254,0.201,0.232,0.251,0.2,0.851,0.507,0.688,0.837,0.602
HCC-15,0.409,–,0.325,0.37,0.304,0.672,–,0.622,0.641,0.529,0.267,–,0.378,0.502,0.418,0.463,–,0.405,0.421,0.323
NCI-H1355,0.433,0.448,0.422,0.391,0.363,0.943,–,0.772,0.755,0.597,0.74,0.776,0.811,0.568,0.521,0.511,0.39,0.387,0.385,0.26
LK-2,0.788,0.676,0.752,0.633,0.708,1.04,–,0.651,0.819,0.843,0.208,–,0.166,0.191,0.158,0.507,–,0.305,0.309,0.38
201T,0.733,0.684,0.71,0.692,0.609,1.22,1.2,1.08,1.08,1.01,1.02,1.01,0.909,0.878,0.749,0.469,0.359,0.359,0.381,0.311
LCLC-97TM1,0.209,–,0.208,0.182,0.184,0.401,–,0.27,0.294,0.281,0.666,0.702,0.684,0.486,0.281,0.41,0.32,0.414,0.351,0.227
BEN,1.05,0.949,0.553,0.873,0.598,0.0758,0.0563,0.0761,0.0645,0.0615,0.619,0.225,0.269,0.205,0.194,0.285,0.243,0.237,0.249,0.257
NCI-H520,0.84,0.574,0.561,0.541,0.245,1.08,0.719,0.745,0.785,0.481,0.203,0.214,0.225,0.216,0.222,0.5,0.321,0.348,0.407,0.227
NCI-H2009,0.307,0.296,0.194,0.223,0.141,1.15,1.17,0.908,0.896,0.404,1.04,0.897,0.817,0.701,0.519,0.457,0.396,0.357,0.291,0.23
